One series deals with Jurkat cells. Description: Inhibition of 14C-2-deoxyglucose uptake. The class given is cell-based. The conditions noted are these: Homo sapiens, Jurkat; Table 8; read-out: IC50, Inhibition of 2 deoxyglucose uptake. The protocol: Inhibition of PFKFB3 results in inhibiting glycolysis. Several feedback or feedforward activation and inhibition mechanisms exist so that, by a feedback mechanism, inhibiting the activity of PFKFB3 might inhibit glucose uptake by cells. An assay was developed to determine if there was inhibition of glucose uptake following exposure PFK-158. Briefly, Jurkat cells were plated at 10^5 cells/mL in RPMI 1640 supplemented with 10% fetal bovine serum and 50 μg/mL gentamicin sulfate. Cells were immediately treated with vehicle or 0.5 μmol/L of PFK-158 for 3 hours and subsequently placed in glucose-free RPMI 1640 for 30 min. ^14C-2-deoxyglucose (0.25 μCi/mL; Perkin Elmer) was added for an additional 60 min and cells were then washed three times with ice-cold RPMI 1640 containing no glucose. Cell lysates were collected in 500 μL of 0.1% SDS and scintillation counts (counts/min) were measured on 400 μL of lysate. Counts were normalized to protein concentration.

The target in series [1] is T1, PFKFB3 (Homo sapiens, UniProt Q16875). The series can be described thus: Enzymatic activity of PFKFB3 in cells (F2,6BP levels, Van Schaftingen method). Type of series: cell-based. Set-up: endogenous in cells; host or cells: Jurkat cells. The settings on record: Table 8; read-out: IC50, Enzymatic activity of PFKFB3 in cells. The protocol: Inhibition of PFKFB3 can also be measured in cells by measuring fructose-2,6-biphosphate levels according to the Van Schaftingen method (Eur. J. of Biochem, 129: 191 (1982)). This method enables measurement of the inhibition in a cellular environment, a model more relevant than the pure recombinant protein. Briefly, Jurkat cells were plated at 1×10^5 cells/mL and incubated with different concentrations of PFK-158 for 3 hours. Samples were collected and cells were lysed. Extracts were characterized as described in previous reports and normalized to protein concentration.
T1 sequence (Q16875 whole entry): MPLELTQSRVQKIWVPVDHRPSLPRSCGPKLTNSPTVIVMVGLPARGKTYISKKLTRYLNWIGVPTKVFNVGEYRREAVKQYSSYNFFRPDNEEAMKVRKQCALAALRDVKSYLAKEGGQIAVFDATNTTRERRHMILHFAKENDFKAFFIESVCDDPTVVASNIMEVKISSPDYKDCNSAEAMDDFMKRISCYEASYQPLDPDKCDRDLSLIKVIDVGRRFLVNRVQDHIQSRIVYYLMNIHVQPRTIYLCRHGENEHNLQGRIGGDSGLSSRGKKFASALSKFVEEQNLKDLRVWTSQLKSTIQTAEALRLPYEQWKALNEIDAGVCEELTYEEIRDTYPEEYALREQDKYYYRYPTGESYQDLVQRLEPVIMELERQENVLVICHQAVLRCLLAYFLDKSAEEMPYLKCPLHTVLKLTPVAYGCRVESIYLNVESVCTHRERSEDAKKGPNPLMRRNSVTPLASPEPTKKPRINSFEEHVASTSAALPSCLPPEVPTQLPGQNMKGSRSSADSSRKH

Series [2] concerns the target T1, PFKFB3. Description: Enzymatic activity of recombinant PFKFB3, ADP-Glo assay. Type of series: biochemical. The settings on record: Table 8; read-out: IC50, Enzymatic activity of PFKFB3, ADP-Glo Assay. The protocol: The inducible bifunctional 6-Phosphofructo-2-kinase/fructose2,6-biphosphatase enzyme (PFKFB3) was expressed and purified in order to determine if PFK-158 inhibits enzymatic activity. PFKFB3 was prepared by expression in E. coli and purified by GST column and column chromatography. […] The recombinant protein was pure and active as determined by the results of a commercially available kinase activity assay (ADP-Glo™, Promega, Madison, Wis.).

A short description of series [3]: IV pharmacokinetics in mice. Type of series: in vivo, Balbc mice. The conditions noted are these: mouse, plasma, 5 mg/kg, Table 9, BalbC mice, IV dosing; for AUC(0-inf): read-out: AUC0-inf; for Cmax: read-out: Cmax. The protocol: The pharmacokinetic (PK) parameters for PFK-158 were determined in mice following IV (intravenous) administration in mice and rats. A typical study design includes six animals (male or female) 7 to 8 weeks old.
Mouse pharmacokinetic properties using a dose of 5 mg/kg were determined after IV administration using a 10% DMSO, 10% PEG-200, 10% Solutol:ethanol (1:1) and 70% D5W solution or any other pharmaceutically acceptable parenteral formulation. Blood samples were collected at different intervals. Plasma samples were extracted and analyzed using an LC-MS/MS method. Similar protocols were used for the rat PK study (Sprague Dawley rats; 30 mg/kg), although the formulation for rat PK studies differed (30% Captisol, pH 3.0 solution). Time vs. plasma concentration plots were prepared as shown in FIGS. 4 (BalbC mice) and 5 (SD rats), respectively. Pharmacokinetic parameters were calculated and are provided below in Table 7.

In series [4] the test system is Jurkat cell line (leukemia cell line). The series can be described thus: Toxicity / cell growth of Jurkat cell line. The class given is cell-based. The settings on record: Homo sapiens, Jurkat; Table 8; read-out: IC50, toxicity of Jurkat cell line (leukemia cell line). The procedure: The ability of PFK-158 to kill or inhibit the proliferation of cancer cells was measured using either the MTT assay, the alamarBlue® assay (Invitrogen, Grand Island, N.Y.), or the CellTiter Glo™ assay (Promega, Madison, Wis.) using 48 or 72 hours exposure.
Cells of the desired tumor cell line were plated at 2×10^5 cells/ml in 96 well plates. Twice the indicated concentrations of the compounds of the invention were added to cells the following day in an equal volume of media. 72 hours later, cells were lysed and subjected to ATP determination using the CellTiter-Glo™ Luminescent Cell Viability Assay kit. Experiments were performed in triplicate. When using the MTT assay or the alamarBlue® assay, the experimental conditions are essentially similar; at the end of the incubation period, 20 microliters of the MTT solution is added per well and the samples are incubated for an additional four hours, rinsed, and absorbance at 570 nm was measured. Results for the inhibition of cell proliferation are reported as the IC50 (the concentration resulting in 50% inhibition of proliferation of the cell population) and are listed in Table 5 below. Cell lines include lung, colon, prostate, breast, ovarian, and pancreatic cancer lines.

Series [5] can be described thus: IV pharmacokinetics in rats, 40 mg/kg. Type of series: in vivo. The settings on record: IV 40 mg/kg; for Plasma AUC0→t: Captisol solution. The protocol: (§1) In another embodiment, a cyclodextrin based solution was used to investigate the PK profile of PFK-158, 2HCl at a higher concentration in both rats and dogs.
(§2) The solution was prepared with 40% w/v Captisol® in water for injection, 5% Mannitol, and a pH 2.3 citrate buffer leading to a 8 mg/ml concentration of PFK-158, 2HCl. This solution was safely administered IV to rats and dogs at a dose of 40 mg/kg. Blood samples were taken over a 24 hour period and analyzed. […] Pharmacokinetic parameters were calculated in the same way in dogs: plasma AUC0→24 values of 16,100±700 and 15,900±2600 hr·ng/mL, and plasma C5 min values of 6960±1180 and 6900±900 ng/mL were obtained for male and female dogs, respectively.

Series [6] can be described thus: IV pharmacokinetics in dogs, 40 mg/kg. The conditions noted are these: IV 40 mg/kg. Type of series: in vivo. The protocol: as §1, §2

The term IC50 denotes the concentration that inhibits the measured activity by half. The clearance is a measure of how efficiently the substance is removed, as volume per time. The low end stands for a low capacity for elimination, the high end for a high capacity for elimination. As a reminder, the half-life is the time in which the quantity being followed falls by half. Lower therefore signals fast loss. As usually defined, the Cmax is the maximum level reached in the sampled fluid or tissue.

Regarding `COc1ccc2nc(/C=C/C(=O)c3ccncc3)ccc2c1` [PFK-138, 3-(6-methoxy-quinolin-2-yl)-1-pyridin-4yl-propenone], the IC50 with Jurkat cells is 2.2 ± 0.3 µM. The IC50 on PFKFB3 [1] was 7.4 ± 1.8 µM. In addition, the IC50 on PFKFB3 [2] came out at 0.431 ± 0.034 µM. Besides, in series [3], the clearance was 9.24 L/h/kg, the half-life is 0.7 h, the AUC(0-inf) was 0.541 µg·h/mL and the Cmax is 0.991 µg/mL. Besides, the IC50 in series [4] amounted to 1.2 ± 0.2 µM.

Consider `O=C(/C=C/c1ccc2cccc(C(F)(F)F)c2n1)c1ccncc1` [PFK-153, 1-Pyridin-4-yl-3-(8-trifluoromethyl-quinolin-2-yl)-propenone], for which the IC50 with Jurkat cells stood at 1.2 ± 0.6 µM. At PFKFB3 [1], the IC50 worked out at 6 ± 0.6 µM. The IC50 at PFKFB3 [2] came to 0.173 ± 0.023 µM. In series [3], the clearance came to 19.6 L/h/kg, the half-life is 3.8 h, the AUC(0-inf) was 0.225 µg·h/mL and the Cmax turned out to be 0.397 µg/mL. Further, in series [4], the IC50 is 0.9 ± 0.1 µM.

As for `COc1ccc2nc(/C=C/C(=O)c3ccnc(OC)c3)ccc2c1` [PFK-144, 1-(2-methoxy-pyridin-4-yl)-3-(6-methoxy-quinolin-2-yl)-propenone], the IC50 came to 3.1 ± 0.5 µM with Jurkat cells, 10.7 ± 0.3 µM at PFKFB3 [1], 0.654 ± 0.094 µM at PFKFB3 [2] and 1.7 ± 0.3 µM in series [4]. In addition, the clearance in series [3] came out at 7.2 L/h/kg. In addition, the half-life in series [3] is 2.8 h. In series [3], the AUC(0-inf) was 0.696 µg·h/mL. For the same molecule, the Cmax in series [3] amounted to 1.5 µg/mL.

Turning to `Cl.Cl.O=C(/C=C/c1ccc2ccc(C(F)(F)F)cc2n1)c1ccncc1` [PFK-158, 2HCl], the “plasma Cmax” value is given as 39,500±10,000 ng/mL in series [5] (female rats) and 51,400±6300 ng/mL in series [5] (male rats). Also, the figures for the “Plasma AUC0→t” value in series [5] (female rats) and in series [5] (male rats) were 27,700±5800 hr·ng/mL and 37,600±2800 hr·ng/mL, respectively. The “plasma AUC0→24” value in series [6] (female dogs) is 15,900±2600 hr·ng/mL; in series [6] (male dogs) it was 16,100±700 hr·ng/mL. In addition, the “plasma C5 min” value in series [6] (female dogs) amounted to 6900 ± 900 ng/mL; in series [6] (male dogs) it was 6960 ± 1180 ng/mL.

With `O=C(/C=C/c1ccc2cc(OCCN3CCCCC3)ccc2n1)c1ccncc1` [PFK-150, 3-(6-(2-piperidin-1-yl-ethoxy)-quinolin-2-yl)-1-pyridin-4-yl-propenone], the IC50 worked out at 3.8 ± 0.8 µM in the series on Jurkat cells, 15.6 ± 1.4 µM at PFKFB3 [1], 0.802 ± 0.177 µM at PFKFB3 [2] and 2.5 ± 0.4 µM in series [4]. The molecule further gave a clearance in series [3] of 79.6 L/h/kg. The half-life in series [3] is 2.5 h. The AUC(0-inf) in series [3] was 0.063 µg·h/mL. Also, the Cmax in series [3] is 0.04 µg/mL.

Take `Cc1ccc2ccc(/C=C/C(=O)c3ccncc3)nc2c1` [PFK-154, 3-(7-Methyl-quinolin-2-yl)-1-pyridin-4-yl-propenone]: the IC50 with Jurkat cells was 2.2 ± 0.6 µM. The IC50 on PFKFB3 [1] worked out at 11.3 ± 0.6 µM. Moreover, in series [3], the clearance stood at 4.5 L/h/kg, the half-life was 6.1 h, the AUC(0-inf) was determined as 1.1 µg·h/mL and the Cmax amounted to 0.672 µg/mL. Besides, the IC50 in series [4] was found to be 1.3 ± 0.1 µM.

For the origin of these results see patent US9649305B2, “PFKFB3 inhibitor and methods of use as an anti-cancer therapeutic” (ADVANCED CANCER THERAPEUTICS, LLC, priority 2012, dated 2017).
